Source: US20240294545A1 (CSPC Zhongqi Pharmaceutical Technology (Shijiazhuang) Co., …, priority 2020, published 2024)
Marks after values point to notes of the source that are not given here.

Key:
[1] = system: Human glioblastoma cell line LN-18; assay: LN18 cell proliferation combined with radiotherapy (CTG assay); type: cell-based; conditions: Homo sapiens, LN-18, light or radiation study; LN18 cells, 1 Gy irradiation 1 h after compound, 6 days, CTG;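 further: readout is CTG luminescence proliferation not KAP1 phosphorylation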
Protocol: 5 Test of the Inhibitory Activities of the Compounds of the Present Disclosure Combined with Radiotherapy on LN18 Cell Proliferation
• Cell: Human glioblastoma cell line LN-18
5.2 Experimental Procedures
• (1) Cell inoculation • 1) The cell culture fluid was preheated at 37° C. • 2) A complete culture medium of LN18 cells was prepared, at a ratio of DMEM medium:FBS=95:5 (V/V). • 3) Cells were digested with trypsin, collected to serve as a cell suspension, and counted, the cell suspension was then added into a 96-well plate at 1500 cells/well and 100 μL of cell fluid/well, and three parallel wells were set. • 4) After inoculated in the plate, the cells were cultured overnight under the condition of 37° C. and 5% CO2. • (2) Compound addition and incubation • 1) AZD1390 and tested compounds, respectively, were sequentially diluted 5 times with DMSO, starting from the concentration of 10 mM and yielding the concentrations of 10, 2, 0.4, 0.08, 0.016, 0.0032, 0.00064, 0.000128, and 0.0000256 mM in turn. The compound solutions at the above concentrations were diluted 5000 times with the complete culture medium. The final 2× concentrations were in order 2000, 400, 80, 16, 3.2, 0.64, 0.128, 0.0256, and 0.00512 nM. The vehicle control was 0.02% DMSO culture fluid. • 2) A complete culture medium containing 100 μL of the compound solution was added to each well, and the final concentrations of the compounds in the wells were in order 1000, 200, 40, 8, 1.6, 0.32, 0.064, 0.0128, and 0.00256 nM. The 0.01% DMSO culture fluid was contained in the vehicle control well. After incubated with compound for 1 h, the cells were irradiated at a dose of 1 Gy. • 3) After irradiation, the plate was put into an incubator and incubated under the condition of 37° C. and 5% CO2 for 6 days. Then detection was performed by adopting CTG assay (100 μL of liquid from each well was sucked out and discarded, and 50 μL of CTG reagent was added to each well, and incubated at room temperature for 30 min, and the luminescence intensity was detected). • (3) Data analysis • 1) The Luminescence signal (RLU) of each well was detected. • 2) Proliferation inhibitory activity was calculated according to the formula: % inhibitory activity=RLUtreatment/RLUAvg(Vehicle)*100. 5.3 the Inhibitory Activities of Compounds of the Present Disclosure Combined with Radiotherapy on LN18 Cell Proliferation

[2] = system: subcutaneous xenograft tumor of human non-small cell lung cancer cell line NCI-H441; assay: NCI-H441 subcutaneous xenograft, combined with irinotecan liposome injection; type: in vivo, NU/NU mice; conditions: for D 17 TGI / D 17 TV (MEAN ± SD) / Tumor weight / Tumor weight inhibitory rate: compound 25 mg/kg intragastric + irinotecan liposome 2.5 mg/kg ip; for D 17 TGI / D 17 TV (MEAN ± SD): day 17; for Tumor weight / Tumor weight inhibitory rate: end of test d17
Protocol: 6 Efficacy Test of the Compounds of the Present Disclosure Combined with Irinotecan Liposome Injection on Inhibiting the Growth of Subcutaneous Xenograft Tumor of Human Non-Small Cell Lung Cancer Cell Line NCI-H441
6.1 Experimental Animals: NU/NU Mice, SPF, Female, 20 to 30 g.
Irinotecan liposome injection (HE072), 43 mg:10 mL, milky white liquid, batch No. B37191202, provided by Preparation Research Institute 2 from CSPC Zhongqi Pharmaceutical Technology (Shijiazhuang) Co., Ltd., diluted to an appropriate concentration with 5% glucose injection while testing.
NCI-H441 cells, provided by Nanjing Kebai Biotechnology Co., Ltd.; 1640 culture medium (gibco Company):fetal bovine serum (Lanzhou Bailing)=90%:10%, 37° C., 5% CO2.
NU/NU nude mice were subcutaneously inoculated with NCI-H441 human non-small cell lung cancer cells. When the mean tumor volume reached 170 to 172 mm^3 (15 days after inoculation), the animals were evenly divided into groups according to the tumor volume (d0), with 6 mice in each group. 2.5 mg/kg of HE072 was administered intraperitoneally once a week for 2 times. Vehicle control, 25 mg/kg of A-193, 25 mg/kg of A-182, and 25 mg/kg of AZD1390 were administered intragastrically once a day, from Monday to Thursday every week except Friday to Sunday, for 2 weeks (8 times). The tumor volume was measured twice a week, the body weight of mouse was weighed every day, and the data were recorded. The tumor volume (TV) was calculated according to the formula: TV=½×a×b2, wherein a and b represent the long and short diameters of tumor, respectively. Tumor growth inhibitory rate TGI (%)=[1−(Ti−T0)/(Vi−V0)]×100, wherein Ti represents the mean tumor volume of a given treatment group on a certain day; TO represents the mean tumor volume of this treatment group at the beginning of administration; Vi represents the mean tumor volume of the vehicle control group on a certain day (the same day as that in Ti); V0 represents the mean tumor volume of the vehicle control group at the beginning of administration. At the end of the test (d17), the animals were sacrificed, the tumors were stripped and weighed, and the tumor weight inhibitory rates were calculated.

IC50 [1] [nM] | SMILES | D 17 TGI [2] [%] | D 17 TV (MEAN ± SD) [2] | Tumor weight [2] [g] | Tumor weight inhibitory rate [2] [%] | inhibitory effect on tumor volume and tumor weight, in words ([2]; combined with irinotecan liposome injection, compared with AZD1390)
2.79 | CC(C)n1c(=O)n(C)c2cnc3cc(F)c(-c4ccc(OCCCN5CCCCC5)nc4)cc3c21 [AZD1390, reference compound] | 60.3 | 342.8 ± 110.6*** mm^3 | 0.32 ± 0.09 | 45.3 | 
10.1 | Cn1c(=O)n2c3c4c(c(-c5ccc(OCCCN6CCCCC6)nc5)c(F)cc4ncc31)NCC2(C)C [Example A-193, 6-fluoro-2,10,10-trimethyl-7-(6-(3-(piperidin-1-yl)propoxy)pyridin-3-yl)-2,8,9,10-tetrahydro-1H-2,4,8,10a-tetraazanaphtho[2,1,8-cde]azulen-1(2H)-one] | 87.5 | 225.9 ± 69.4***^### mm^3 | 0.24 ± 0.06 | 60.2 | higher than those of AZD1390
